Experimental data: patent US12491170B2, “Stable treprostinil prodrugs” (United Therapeutics Corporation, priority 2020, dated 2025)

Key:
[1] = Stability in cryopreserved hepatocytes, human
Description: (§1) Mixed-gender human cryopreserved hepatocytes, male Sprague-Dawley rat cryopreserved hepatocytes, and male Beagle dog cryopreserved hepatocytes were purchased from XenoTech. The hepatocytes were thawed and prepared according to the vendor's instructions, pooled into Krebs Henseleit buffer (KHB, pH 7.4), and kept on ice prior to the experiments. […] The final DMSO content in the incubation mixture was ≤0.1%. […] Aliquots of the test article were withdrawn (n=1) at 0, 15, 30, 60, and 120 minutes. […] Aliquots of 7-HC were withdrawn (n=1) at 0 and 15 minutes. The reaction was immediately terminated by adding two volumes of ice-cold acetonitrile (ACN) to the test article samples and three volumes of ACN containing internal standard to the positive control samples. The samples were then mixed and centrifuged to precipitate proteins. An aliquot of the supernatant was then diluted with water and analyzed by LC-MS/MS against calibration standards prepared in a matched matrix. […] All test article samples were analyzed for the dosed prodrugs as well as the drug, treprostinil. The test article concentration was compared to the concentration at time 0 to determine the percent of test article remaining at each time point. Half-lives and clearance values were calculated using GraphPad software, fitting to a single-phase exponential decay equation.

[2] = Stability in cryopreserved hepatocytes, rat
Description: as §1

[3] = Stability in cryopreserved hepatocytes, dog
Description: as §1

[4] = Stability in human subcutaneous skin homogenate
Description: The pool of skin homogenate was prepared by combining equal volumes of three lots that were tested in the initial skin homogenate lot assessment experiments.
A stock solution of calcein-AM was first prepared at 5 mM in DMSO, followed by a serial dilution into methanol at a concentration of 100 μM. 495 μL of skin homogenate was thawed and warmed to 37° C. A 5 μL aliquot of the 100 μM calcein-AM solution was spiked into the skin homogenate, for a final calcein-AM dosing concentration of 1 μM. After briefly mixing, 150 μL aliquots were removed in triplicate and transferred to 96-well Falcon plates. The plates were placed onto a Thermomixer and maintained at 37° C., with gentle shaking for the duration of the experiment. At each time point (0, 15, 30, 60, and 120 minutes), the plate was removed from the Thermomixer and transferred to a FLUOstar® plate reader, and the formation of calcein (Sigma) was monitored by fluorescence (490/515 nm). Calibration standards of calcein were prepared in distilled water by serial dilutions of a calcein DMSO stock at final concentrations ranging from 1 μM to 1 nM. All samples and standards were read concurrently (Table 13).
For each of the test articles, 495 μL of skin homogenate was added to triplicate centrifuge tubes. To each tube, 5 μL of a 100 μM solution of test article was added, for a final test article dosing concentration of 1 μM. The tubes were placed onto a Thermomixer and maintained at 37° C. with gentle shaking for the duration of the experiment. At each time point (0, 30, 60, and 120 minutes), a 100 μL aliquot was removed from each tube and combined with 200 μL of acetonitrile to stop the stability reaction. The tubes were mixed and centrifuged at 3000 rpm for 10 minutes. Aliquots of supernatant were removed and diluted 1:1 with distilled water containing internal standard (2 μM treprostinil-d4). Calibration standards for the treprostinil analysis were prepared for each test article in a surrogate matrix (supernatant from a mixture of 1:2 human plasma:acetonitrile), at concentrations ranging from 1 μM to 1 nM. Calibration standards were also diluted 1:1 with distilled water containing internal standard. The disappearance of each individual test article was monitored, as well as the formation of treprostinil (Table 14 and Table 15).

[5] = Stability in liver microsomes, rat; settings: rat
Description: (§2) Mixed-gender human liver microsomes, male Sprague-Dawley rat liver microsomes, and male Beagle dog liver microsomes were purchased from XenoTech. The reaction mixture, minus NADPH, was prepared as described below. […] An aliquot of the reaction mixture (without cofactor) was equilibrated in a shaking water bath at 37° C. for 5 minutes. The reaction was initiated by the addition of cofactor, and the mixture was incubated in a shaking water bath at 37° C. Aliquots (200 μL) were withdrawn at 0, 10, 20, 30, and 60 minutes. Test article samples were immediately combined with 400 μL of ice-cold acetonitrile (ACN) to terminate the reaction. […] The samples were then mixed and centrifuged to precipitate proteins. Aliquots of the supernatant were removed, diluted 1:1 into distilled water containing internal standard, and analyzed by LC-MS/MS against calibration standards prepared in a matched matrix. All samples were analyzed for the dosed prodrugs as well as the drug, treprostinil. The test article concentration was compared to the concentration at time 0 to determine the percent of test article remaining at each time point. Half-lives and clearance were calculated using GraphPad software, fitting to a single-phase exponential decay equation.
(§3) • Liver Microsomes 0.5 mg/mL • NADPH (cofactor) 1 mM • Potassium Phosphate, pH 7.4 100 mM • Magnesium Chloride 5 mM • Test Article 1 μM

[6] = Stability in liver microsomes, human; settings: human
Description: as §2, §3

[7] = Stability in liver microsomes, dog; settings: dog
Description: as §2, §3

[8] = both, human, 15 min, 100 μM, pH 7.4
[9] = male, Sprague-Dawley, rat, 15 min, 100 μM, pH 7.4
[10] = male, Beagle, dog, 15 min, 100 μM, pH 7.4

Q: With `O=c1ccc2ccc(O)cc2o1` [7-Hydroxycoumarin, 7-hydroxycoumarin, reference compound] as the compound, how does the “Formation Rate of 7-HC-G (glucuronide)” value [1, 8] read?
A: 97.7 pmol/min/10^6 cells

Q: What about the “Formation Rate of 7-HC-S (sulfate)” value [1, 8] of the same compound?
A: 10.8 pmol/min/10^6 cells

Q: What about the “Formation Rate of 7-HC-G (glucuronide)” value [2, 9] of the same compound?
A: 91.4 pmol/min/10^6 cells

Q: And the “Formation Rate of 7-HC-S (sulfate)” value [2, 9]?
A: 24.7 pmol/min/10^6 cells

Q: What about the “Formation Rate of 7-HC-G (glucuronide)” value [3, 10] of the same compound?
A: 114 pmol/min/10^6 cells

Q: And the “Formation Rate of 7-HC-S (sulfate)” value [3, 10]?
A: 35.9 pmol/min/10^6 cells

Q: With `CCCCCC(CCC1C(O)CC2Cc3c(cccc3OCC(=O)O)CC21)OC(=O)OC` (stereo not drawn) [IV 1st] as the compound, how does the AUC ([4]; human) read?
A: 7.07 µmol·min/L

Q: Which AUC ([4]; human) does the source give for `CCCCCC(CCC1C(O)CC2Cc3c(cccc3OCC(=O)O)CC21)OC(=O)OC` (stereo not drawn) [IV 2nd] here?
A: 62.69 µmol·min/L

Q: With `CCCCCC(CCC1C(O)CC2Cc3c(cccc3OCC(=O)O)CC21)OC(=O)OC` (stereo not drawn) [IV 3rd] as the compound, how does the AUC ([4]; human) read?
A: 9.59 µmol·min/L

Q: Which “Trep Concentration (μM) 0 min” value [1] does the source give for `CCCCCC(CCC1C(O)CC2Cc3c(cccc3OCC(=O)O)CC21)OCc1oc(=O)oc1C` (stereo not drawn) [LI] here?
A: 0.0425 µM

Q: And the “Trep Concentration (μM) 15 min” value [1]?
A: 0.647 µM

Q: And the “Trep Concentration (μM) 30 min” value [1]?
A: 0.626 µM

Q: What about the “Trep Concentration (μM) 60 min” value [1] of the same compound?
A: 0.608 µM

Q: What about the “Trep Concentration (μM) 120 min” value [1] of the same compound?
A: 0.55 µM

Q: And the “AUC” value ([1]; human)?
A: 67.97 µmol·min/L

Q: And the “Trep Concentration (μM) 0 min” value [2]?
A: 0.327 µM

Q: And the “Trep Concentration (μM) 15 min” value [2]?
A: 0.703 µM

Q: And the “Trep Concentration (μM) 30 min” value [2]?
A: 0.61 µM

Q: And the “Trep Concentration (μM) 60 min” value [2]?
A: 0.523 µM

Q: And the “Trep Concentration (μM) 120 min” value [2]?
A: 0.464 µM

Q: And the “AUC” value ([2]; rat)?
A: 64.18 µmol·min/L

Q: And the “Trep Concentration (μM) 0 min” value [3]?
A: 0.0214 µM

Q: What about the “Trep Concentration (μM) 15 min” value [3] of the same compound?
A: 0.627 µM

Q: What about the “Trep Concentration (μM) 30 min” value [3] of the same compound?
A: 0.605 µM

Q: What about the “Trep Concentration (μM) 60 min” value [3] of the same compound?
A: 0.537 µM

Q: What about the “Trep Concentration (μM) 120 min” value [3] of the same compound?
A: 0.482 µM

Q: And the “AUC” value ([3]; dog)?
A: 61.80 µmol·min/L

Q: What does the source list for `CCCCCC(CCC1C(O)CC2Cc3c(cccc3OCC(=O)O)CC21)OC(=O)OC` (stereo not drawn) [Prodrug IV]?
A: Mono AUC (treprostinil formed) ([1]; human): 39.8 µmol·min/L; Mono AUC (treprostinil formed) ([2]; rat): 70.0 µmol·min/L; Mono AUC (treprostinil formed) ([4]; human): 9.59 µmol·min/L; AUC Mono (treprostinil formed) [5]: 49.7 µmol·min/L; AUC Mono (treprostinil formed) [6]: 16.9 µmol·min/L; AUC Mono (treprostinil formed) [7]: 56.0 µmol·min/L; Mono AUC (treprostinil formed) ([3]; dog): 48.0 µmol·min/L

Q: Which “Half-life (positive control)” value ([1]; human hepatocytes, 1 μM, control) does the source give for `C[C@]12CC[C@H]3[C@@H](CCC4=CC(=O)CC[C@@]43C)[C@@H]1CC[C@@H]2O` [Testosterone, testosterone, reference compound] here?
A: 4.82 min

Q: Which AUC ([4]; human) does the source give for `CCCCCC(O)CCC1C(O)CC2Cc3c(cccc3OCC(=O)NCC(=O)O)CC21` (stereo not drawn) [VII new] here?
A: 0.00 µmol·min/L

Q: With `CCCCCC(O)CCC1C(O)CC2Cc3c(cccc3OCC(=O)NCC(=O)O)CC21` (stereo not drawn) [VII orig] as the compound, how does the AUC ([4]; human) read?
A: 0.14 µmol·min/L

Q: With `CCCCCC(CCC1C(O)CC2Cc3c(cccc3OCC(=O)O)CC21)OC(=O)NC` (stereo not drawn) [VIII] as the compound, how does the “Trep Concentration (μM) 0 min” value [1] read?
A: 0 µM

Q: And the “Trep Concentration (μM) 15 min” value [1]?
A: 0 µM

Q: And the “Trep Concentration (μM) 30 min” value [1]?
A: 0 µM

Q: And the “Trep Concentration (μM) 60 min” value [1]?
A: 0.00464 µM

Q: What about the “Trep Concentration (μM) 120 min” value [1] of the same compound?
A: 0 µM

Q: What about the “AUC” value ([1]; human) of the same compound?
A: 0.21 µmol·min/L

Q: What about the “Trep Concentration (μM) 0 min” value [2] of the same compound?
A: 0 µM

Q: What about the “Trep Concentration (μM) 15 min” value [2] of the same compound?
A: 0 µM

Q: And the “Trep Concentration (μM) 30 min” value [2]?
A: 0 µM

Q: And the “Trep Concentration (μM) 60 min” value [2]?
A: 0.00511 µM

Q: What about the “Trep Concentration (μM) 120 min” value [2] of the same compound?
A: 0 µM

Q: And the “AUC” value ([2]; rat)?
A: 0.23 µmol·min/L

Q: What about the “Trep Concentration 0 min” value [4] of the same compound?
A: 0 µM

Q: And the “Trep Concentration 30 min” value [4]?
A: 0 µM

Q: And the “Trep Concentration 60 min” value [4]?
A: 0 µM

Q: What about the “Trep Concentration 120 min” value [4] of the same compound?
A: 0 µM

Q: And the AUC ([4]; human)?
A: 0.00 µmol·min/L

Q: What about the “Trep Concentration (μM) 0 min” value [3] of the same compound?
A: 0 µM

Q: And the “Trep Concentration (μM) 15 min” value [3]?
A: 0 µM

Q: And the “Trep Concentration (μM) 30 min” value [3]?
A: 0 µM

Q: And the “Trep Concentration (μM) 60 min” value [3]?
A: 0 µM

Q: What about the “Trep Concentration (μM) 120 min” value [3] of the same compound?
A: 0 µM

Q: And the “AUC” value ([3]; dog)?
A: 0.00 µmol·min/L

Q: What does the source list for `CCCCCC(CCC1C(O)CC2Cc3c(cccc3OCC(=O)O)CC21)OC(=O)OCCOCCOC` (stereo not drawn) [XLI]?
A: Trep Concentration 0 min [4]: 0 µM; Trep Concentration 30 min [4]: 0.0526 µM; Trep Concentration 60 min [4]: 0.091 µM; Trep Concentration 120 min [4]: 0.19 µM; AUC ([4]; human): 11.37 µmol·min/L

Q: With `CCCCCC(CCC1C(O)CC2Cc3c(cccc3OCC(=O)O)CC21)OC(=O)OCCOC` (stereo not drawn) [XL] as the compound, how does the “Trep Concentration 0 min” value [4] read?
A: 0 µM

Q: What about the “Trep Concentration 30 min” value [4] of the same compound?
A: 0.202 µM

Q: What about the “Trep Concentration 60 min” value [4] of the same compound?
A: 0.329 µM

Q: And the “Trep Concentration 120 min” value [4]?
A: 0.59 µM

Q: What about the AUC ([4]; human) of the same compound?
A: 38.57 µmol·min/L

Q: Which results are given for `CCCCCC(CCC1C(O)CC2Cc3c(cccc3OCC(=O)O)CC21)OC(=O)CCC(=O)O` (stereo not drawn) [XX new]?
A: Trep Concentration 0 min [4]: 0 µM; Trep Concentration 30 min [4]: 0.00878 µM; Trep Concentration 60 min [4]: 0.0149 µM; Trep Concentration 120 min [4]: 0.0271 µM; AUC ([4]; human): 1.75 µmol·min/L
